These are literature values, as cited in paper doi:10.1101/2023.04.08.536135v1 (bioRxiv, 2023).

This series deals with IDE.

Consider “bradykinin (RPPGFSPFR; Bradykinin; UniProt P01042 381-389, looked up)”, for which the “rate of degradation by IDE relative to that of insulin” value is on record as “at least 20 fold”.
